Patent US20200270233A1, “DHFR INHIBITORS, COMPOSITIONS, AND METHODS RELATED THERETO” (Vyera Pharmaceuticais LLC, priority 2017, published 2020)
Like-named read-outs stand apart in the source and are kept apart here.

Legend:
[1] = target: T. cruzi DHFR (tcDHFR) (Trypanosoma cruzi, UniProt Q27793); assay: biochemical; settings: for Average DHFR selectivity (h/tc): hDHFR IC50/tcDHFR IC50
[2] = target: T1, hDHFR (Homo sapiens, UniProt P00374); format: biochemical
T1 sequence (P00374 1-187): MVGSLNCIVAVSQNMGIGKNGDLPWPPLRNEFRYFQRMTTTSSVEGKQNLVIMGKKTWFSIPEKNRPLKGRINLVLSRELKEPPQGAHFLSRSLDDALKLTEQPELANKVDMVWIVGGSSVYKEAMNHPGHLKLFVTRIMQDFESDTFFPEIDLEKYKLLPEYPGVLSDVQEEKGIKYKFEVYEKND

[3] = target: T2, T. gondii DHFR (tgDHFR) (Toxoplasma gondii, UniProt Q07422); assay: biochemical; settings: Table 16; for Average DHFR selectivity (h/tg): hDHFR IC50/tgDHFR IC50; for IC50: pIC50 = -log10 IC50, at least three replicates, read-out: tgDHFR pIC50-DHFR primary assay (converted)
T2 sequence (Q07422 1-610): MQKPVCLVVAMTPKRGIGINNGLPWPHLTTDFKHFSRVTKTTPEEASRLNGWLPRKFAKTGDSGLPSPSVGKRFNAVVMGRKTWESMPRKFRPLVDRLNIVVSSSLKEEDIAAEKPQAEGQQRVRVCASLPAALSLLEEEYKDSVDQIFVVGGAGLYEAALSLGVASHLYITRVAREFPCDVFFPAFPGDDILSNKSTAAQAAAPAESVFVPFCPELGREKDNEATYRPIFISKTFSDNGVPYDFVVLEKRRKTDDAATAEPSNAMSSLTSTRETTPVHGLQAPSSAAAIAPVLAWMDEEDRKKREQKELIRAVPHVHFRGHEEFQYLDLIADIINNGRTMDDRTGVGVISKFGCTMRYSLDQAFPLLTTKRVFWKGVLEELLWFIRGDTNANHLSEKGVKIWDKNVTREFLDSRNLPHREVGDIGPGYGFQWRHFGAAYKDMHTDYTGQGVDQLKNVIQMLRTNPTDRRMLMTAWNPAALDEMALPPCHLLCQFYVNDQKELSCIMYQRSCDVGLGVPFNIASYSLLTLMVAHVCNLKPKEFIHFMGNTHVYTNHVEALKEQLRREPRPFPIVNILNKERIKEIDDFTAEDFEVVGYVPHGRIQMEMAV

[4] = Table 17, pIC50 = -log10 IC50, at least three replicates, read-out: hDHFR pIC50-DHFR primary assay (converted)
[5] = Table 16, pIC50 = -log10 IC50, at least three replicates, read-out: hDHFR pIC50-DHFR primary assay (converted)
[6] = Table 17, pIC50 = -log10 IC50, at least three replicates, read-out: tcDHFR pIC50-DHFR primary assay (converted)

Chain of T. cruzi DHFR (tcDHFR) (Q27793 whole entry): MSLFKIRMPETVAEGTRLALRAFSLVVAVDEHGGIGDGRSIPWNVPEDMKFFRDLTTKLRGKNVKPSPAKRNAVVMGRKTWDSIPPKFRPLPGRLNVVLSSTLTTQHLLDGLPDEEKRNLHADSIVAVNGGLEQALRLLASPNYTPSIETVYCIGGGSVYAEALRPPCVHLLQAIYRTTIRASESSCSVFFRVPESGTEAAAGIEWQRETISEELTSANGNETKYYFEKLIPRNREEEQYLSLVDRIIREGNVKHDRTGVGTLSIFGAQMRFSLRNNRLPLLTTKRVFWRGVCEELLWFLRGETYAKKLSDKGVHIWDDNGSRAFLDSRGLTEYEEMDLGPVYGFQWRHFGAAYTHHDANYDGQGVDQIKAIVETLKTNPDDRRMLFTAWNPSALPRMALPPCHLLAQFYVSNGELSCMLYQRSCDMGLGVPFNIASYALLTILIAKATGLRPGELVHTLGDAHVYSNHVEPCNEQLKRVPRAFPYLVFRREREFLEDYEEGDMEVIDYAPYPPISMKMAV

Structure (SMILES) | IC50 [2, 4] [nM] | Average DHFR selectivity (h/tc) ([1]; Table 17) | IC50 [1, 6] [nM] | other results
Cc1ccc(N2CCN(c3cnc(N)nc3N)CC2)cc1 [Compound 8, 5-(4-(p-tolyl)piperazin-1-yl)pyrimidine-2,4-diamine] | – | – | – | IC50 [1]: 18.2 nM
COc1cccc(N2CCN(c3cnc(N)nc3N)CC2)c1 [Compound 9, 5-(4-(3-methoxyphenyl)piperazin-1-yl)pyrimidine-2,4-diamine] | – | – | – | IC50 [1]: 28.8 nM
Nc1ncc(N2CCN(c3cccc(-c4ccncn4)c3)CC2)c(N)n1 [Compound 102, 5-(4-(3-(pyrimidin-4-yl)phenyl)piperazin-1-yl)pyrimidine-2,4-diamine] | 1660 | – | – | IC50 [1]: 15.8 nM
Nc1ncc(N2CCN(c3ccc(C(F)(F)F)nc3)CC2)c(N)n1 [Compound 112] | 2040 | – | – | IC50 [1]: 5.62 nM
COc1ccc(N2CCN(c3cnc(N)nc3N)CC2)cc1 [Compound 114, 5-(4-(4-methoxyphenyl)piperazin-1-yl)pyrimidine-2,4-diamine] | 813 | – | – | IC50 [1]: 5.62 nM
Nc1ncc(N2CCN(c3ccc(C(F)(F)F)cc3)CC2)c(N)n1 [Compound 115, 5-(4-(4-(trifluoromethyl)phenyl)piperazin-1-yl)pyrimidine-2,4-diamine] | – | – | – | IC50 [2]: 813 nM; IC50 [1]: 6.17 nM
Nc1ncc(N2CCN(c3ccc(F)cc3)CC2)c(N)n1 [Compound 116, 5-(4-(4-fluorophenyl)piperazin-1-yl)pyrimidine-2,4-diamine] | 5010 | – | – | IC50 [1]: 50.1 nM
Nc1ncc(N2CCN(c3ccnc(C(F)(F)F)c3)CC2)c(N)n1 [Compound 139, 5-(4-(2-(trifluoromethyl)pyridin-4-yl)piperazin-1-yl)pyrimidine-2,4-diamine] | 47.9 | 8.02 | 6.24 | IC50 [2, 5]: 81.3 nM; Average DHFR selectivity (h/tg) [3]: 2.03; IC50 [3]: 39.8 nM
Nc1ncc(N2CCN(c3ccc(C(F)(F)F)cn3)CC2)c(N)n1 [Compound 140, 5-(4-(5-(trifluoromethyl)pyridin-2-yl)piperazin-1-yl)pyrimidine-2,4-diamine] | 617 | 90.29 | 7 | –
Nc1ncc(N2CCN(c3ccc(Cl)nc3)CC2)c(N)n1 [Compound 141, 5-(4-(6-chloropyridin-3-yl)piperazin-1-yl)pyrimidine-2,4-diamine] | 417 | 67.2 | 6.31 | –
Nc1ncc(N2CCN(c3cnc(C(F)(F)F)nc3)CC2)c(N)n1 [Compound 142, 5-(4-(2-(trifluoromethyl)pyrimidin-5-yl)piperazin-1-yl)pyrimidine-2,4-diamine] | 7630 | 206.5 | 38.5 | –
Nc1ncc(N2CCN(c3ccc(F)c(Cl)c3)CC2)c(N)n1 [Compound 143, 5-(4-(3-chloro-4-fluorophenyl)piperazin-1-yl)pyrimidine-2,4-diamine] | 684 | 41.735 | 16.6 | –
Nc1ncc(N2CCN(c3cc(Cl)ccc3F)CC2)c(N)n1 [Compound 144, 5-(4-(5-chloro-2-fluorophenyl)piperazin-1-yl)pyrimidine-2,4-diamine] | 8610 | 52.69 | 170 | –
Nc1ncc(N2CCN(c3cncc(Br)c3)CC2)c(N)n1 [Compound 145, 5-(4-(5-bromopyridin-3-yl)piperazin-1-yl)pyrimidine-2,4-diamine] | 1170 | 56.7 | 21.6 | –
Cc1ccc(N2CCN(c3cnc(N)nc3N)CC2)cn1 [Compound 146, 5-(4-(6-methylpyridin-3-yl)piperazin-1-yl)pyrimidine-2,4-diamine] | 7410 | 222.395 | 33.5 | –
Nc1ncc(N2CCN(c3ccnc(Cl)c3)CC2)c(N)n1 [Compound 147, 5-(4-(2-chloropyridin-4-yl)piperazin-1-yl)pyrimidine-2,4-diamine] | 180 | 24.92 | 7.41 | –
Nc1ncc(N2CCN(c3cc(Cl)ccn3)CC2)c(N)n1 [Compound 148, 5-(4-(4-chloropyridin-2-yl)piperazin-1-yl)pyrimidine-2,4-diamine] | 2190 | 94.81 | 22.9 | –
Nc1ncc(N2CCN(c3ccc(Cl)cn3)CC2)c(N)n1 [Compound 149, 5-(4-(5-chloropyridin-2-yl)piperazin-1-yl)pyrimidine-2,4-diamine] | 1970 | 122.69 | 16.2 | –
Nc1ncc(N2CCN(c3cccc(Cl)n3)CC2)c(N)n1 [Compound 150, 5-(4-(6-chloropyridin-2-yl)piperazin-1-yl)pyrimidine-2,4-diamine] | 653 | 59.955 | 10.8 | –
COc1ncc(-c2ccnc(N3CCN(c4cnc(N)nc4N)CC3)c2)cn1 [Compound 165] | – | – | – | IC50 [2, 5]: 355 nM; Average DHFR selectivity (h/tg) [3]: 82.03; IC50 [3]: 4.37 nM
C[C@H]1CN(c2cnc(N)nc2N)CCN1c1cccc(C2CCOCC2)c1 [Compound 174] | – | – | – | IC50 [2, 5]: 955 nM; Average DHFR selectivity (h/tg) [3]: 30.69; IC50 [3]: 31.6 nM
C[C@@H]1CN(c2cnc(N)nc2N)CCN1c1cccc(C2CCOCC2)c1 [Compound 176] | – | – | – | IC50 [2, 5]: 107 nM; Average DHFR selectivity (h/tg) [3]: 47.03; IC50 [3]: 2.29 nM
Nc1ncc(N2CCN(c3cccc(-c4cnc(O)nc4)n3)CC2)c(N)n1 [Compound 181, 5-(6-(4-(2,4-diaminopyrimidin-5-yl)piperazin-1-yl)pyridin-2-yl)pyrimidin-2-ol] | – | – | – | IC50 [2, 5]: 16.6 nM; Average DHFR selectivity (h/tg) [3]: 13.94; IC50 [3]: 1.2 nM
COc1ncc(-c2cccc(N3CC=C(c4cnc(N)nc4N)CC3)c2)cn1 [Compound 182, 5-(1-(3-(2-methoxypyrimidin-5-yl)phenyl)-1,2,3,6-tetrahydropyridin-4-yl)pyrimidine-2,4-diamine] | – | – | – | IC50 [2, 5]: 77.6 nM; Average DHFR selectivity (h/tg) [3]: 37.84; IC50 [3]: 2.04 nM
C[C@H]1CN(c2cnc(N)nc2N)CCN1c1cccc(C2=CCOCC2)c1 [Compound 192, (S)-5-(4-(3-(3,6-dihydro-2H-pyran-4-yl)phenyI)-3-methylpiperazin-1-yl)pyrimidine-2,4-diamine] | – | – | – | IC50 [2, 5]: 479 nM; Average DHFR selectivity (h/tg) [3]: 17.89; IC50 [3]: 27.5 nM
C[C@@H]1CN(c2cnc(N)nc2N)CCN1c1cccc(C2=CCOCC2)c1 [Compound 194, (R)-5-(4-(3-(3,6-dihydro-2H-pyran-4-yl)phenyl)-3-methylpiperazin-1-yl)pyrimidine-2,4-diamine] | – | – | – | IC50 [2, 5]: 33.1 nM; Average DHFR selectivity (h/tg) [3]: 18.10; IC50 [3]: 1.82 nM
CN(Cc1cnc2nc(N)nc(N)c2n1)c1ccc(C(=O)N[C@@H](CCC(=O)O)C(=O)O)cc1 [Methotrexate] | – | – | – | IC50 [1]: 1.1 nM
CCc1nc(N)nc(N)c1-c1ccc(Cl)cc1 [pyrimethamine, reference compound] | – | – | – | IC50 [1]: 1000 nM

The next lines start with results.

IC50 [2, 4] [nM] | Average DHFR selectivity (h/tc) ([1]; Table 17) | IC50 [1, 6] [nM] | Structure (SMILES) | other results
851 | 31.54 | 27.2 | Nc1ncc(N2CCN(c3cccc(OC4CCOCC4)c3)CC2)c(N)n1 [Compound 151, 5-(4-(3-((tetrahydro-2H-pyran-4-yl)oxy)phenyl)piperazin-1-yl)pyrimidine-2,4-diamine] | IC50 [2, 5]: 851 nM; Average DHFR selectivity (h/tg) [3]: 50.16; IC50 [3]: 17 nM
3720 | 60.75 | 61.7 | Nc1ncc(N2CCN(c3ccc(F)nc3)CC2)c(N)n1 [Compound 156, 5-(4-(6-fluoropyridin-3-yl)piperazin-1-yl)pyrimidine-2,4-diamine] | –
484 | 17.495 | 28.8 | Nc1ncc(N2CCN(c3cccc(C4CCCOC4)c3)CC2)c(N)n1 (centres unmarked) [Compound 179] | –
2690 | 209.762 | 14 | COc1ccc(N2CCN(c3cnc(N)nc3N)CC2)cn1 [Compound 188, 5-(4-(6-methoxypyridin-3-yl)piperazin-1-yl)pyrimidine-2,4-diamine] | –
68.4 | 25.16 | 2.82 | Nc1ncc(N2CCN(c3ccc(C4=CCOCC4)cc3)CC2)c(N)n1 [Compound 191, 5-(4-(4-(3,6-dihydro-2H-pyran-4-yl)phenyl)piperazin-1-yl)pyrimidine-2,4-diamine] | –
